# Results: patent US20230150974A1 (Foghorn Therapeutics Inc., priority 2020, published 2023)
# How the values were obtained:
# [1] = molecular target: T1, HiBiT-BRM (Homo sapiens, UniProt P51531); assay: HiBiT-BRM cell-based degradation assay (Nano-Glo HiBiT Lytic Detection); conditions: HeLa cells expressing HiBiT-BRM, 24 h; for DC50: read-out: BRM HiBit Degradation IC50
# T1 construct: expressed in transfected cells
# How it was run: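 Luminescence from HiBiT–LgBiT complementation in lysates of a stable HiBiT-BRM HeLa line measured after 24 h compound exposure. Degradation expressed as percent relative to DMSO-treated cells and cells given 2 μM of a known BRM/BRG1 degrader.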
# [2] = molecular target: T2, HiBit-BRG1 (Homo sapiens, UniProt P51532); assay: HiBit-BRG1 cell-based degradation assay (Nano-Glo HiBiT Lytic Detection); conditions: HeLa cells expressing HiBit-BRG1 and LgBit, 24 h; for DC50: read-out: BRG1 HiBit Degradation IC50; for Dmax: read-out: BRG1 HiBit Degradation Maximum (%)
# T2 construct: expressed in transfected cells
# T2 sequence (P51532 whole entry): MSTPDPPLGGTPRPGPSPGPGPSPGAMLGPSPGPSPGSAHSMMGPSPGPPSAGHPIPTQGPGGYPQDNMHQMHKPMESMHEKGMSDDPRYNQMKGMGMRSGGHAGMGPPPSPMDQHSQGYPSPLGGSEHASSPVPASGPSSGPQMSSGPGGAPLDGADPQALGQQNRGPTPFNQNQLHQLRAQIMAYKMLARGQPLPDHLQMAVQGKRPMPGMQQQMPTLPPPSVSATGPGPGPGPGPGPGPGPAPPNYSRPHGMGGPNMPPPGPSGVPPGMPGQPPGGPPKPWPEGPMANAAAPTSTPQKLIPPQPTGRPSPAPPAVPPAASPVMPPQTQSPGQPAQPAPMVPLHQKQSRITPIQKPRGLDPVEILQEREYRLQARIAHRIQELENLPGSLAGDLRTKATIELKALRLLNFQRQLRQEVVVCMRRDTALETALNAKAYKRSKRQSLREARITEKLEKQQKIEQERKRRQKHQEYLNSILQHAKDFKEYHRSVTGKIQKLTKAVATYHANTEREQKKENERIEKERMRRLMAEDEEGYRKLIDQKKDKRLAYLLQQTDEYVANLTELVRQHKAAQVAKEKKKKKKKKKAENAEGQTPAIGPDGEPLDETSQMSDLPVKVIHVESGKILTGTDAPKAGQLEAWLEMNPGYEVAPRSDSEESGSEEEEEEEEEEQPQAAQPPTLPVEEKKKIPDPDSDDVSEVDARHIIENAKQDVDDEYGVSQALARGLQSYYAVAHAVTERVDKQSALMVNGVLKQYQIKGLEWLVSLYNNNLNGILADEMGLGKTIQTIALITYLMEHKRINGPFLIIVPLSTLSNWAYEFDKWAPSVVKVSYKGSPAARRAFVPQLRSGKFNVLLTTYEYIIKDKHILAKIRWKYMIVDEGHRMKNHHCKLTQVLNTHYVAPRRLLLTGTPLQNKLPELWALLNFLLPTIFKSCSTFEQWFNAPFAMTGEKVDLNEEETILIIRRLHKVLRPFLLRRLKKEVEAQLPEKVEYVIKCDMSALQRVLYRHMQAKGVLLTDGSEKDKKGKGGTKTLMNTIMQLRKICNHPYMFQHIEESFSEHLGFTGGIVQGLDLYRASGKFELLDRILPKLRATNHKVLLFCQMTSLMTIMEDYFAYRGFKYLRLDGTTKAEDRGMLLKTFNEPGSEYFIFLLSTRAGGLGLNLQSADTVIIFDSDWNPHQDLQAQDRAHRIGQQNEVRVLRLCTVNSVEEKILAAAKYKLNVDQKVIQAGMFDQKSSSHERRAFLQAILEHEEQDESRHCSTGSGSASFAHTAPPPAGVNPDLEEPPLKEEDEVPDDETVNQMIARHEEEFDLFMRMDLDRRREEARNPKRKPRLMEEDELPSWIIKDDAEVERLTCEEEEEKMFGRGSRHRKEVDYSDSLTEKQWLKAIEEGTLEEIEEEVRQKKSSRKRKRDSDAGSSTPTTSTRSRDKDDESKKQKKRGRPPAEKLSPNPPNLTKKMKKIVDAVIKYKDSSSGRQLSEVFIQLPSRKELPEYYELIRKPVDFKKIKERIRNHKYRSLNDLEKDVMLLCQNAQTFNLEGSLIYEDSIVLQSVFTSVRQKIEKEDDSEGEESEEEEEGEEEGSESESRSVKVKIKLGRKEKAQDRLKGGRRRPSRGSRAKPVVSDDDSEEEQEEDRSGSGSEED
# How it was run: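 Luminescence from reconstituted NanoBiT luciferase after lytic detection served as read-out of remaining HiBit-BRG1 in stable HeLa cells, which also express LgBit. Cells were seeded at 5000 per well and incubated with compound for 24 h. DMSO and a 2 μM known degrader defined the control range.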
# T1 sequence (P51531 whole entry): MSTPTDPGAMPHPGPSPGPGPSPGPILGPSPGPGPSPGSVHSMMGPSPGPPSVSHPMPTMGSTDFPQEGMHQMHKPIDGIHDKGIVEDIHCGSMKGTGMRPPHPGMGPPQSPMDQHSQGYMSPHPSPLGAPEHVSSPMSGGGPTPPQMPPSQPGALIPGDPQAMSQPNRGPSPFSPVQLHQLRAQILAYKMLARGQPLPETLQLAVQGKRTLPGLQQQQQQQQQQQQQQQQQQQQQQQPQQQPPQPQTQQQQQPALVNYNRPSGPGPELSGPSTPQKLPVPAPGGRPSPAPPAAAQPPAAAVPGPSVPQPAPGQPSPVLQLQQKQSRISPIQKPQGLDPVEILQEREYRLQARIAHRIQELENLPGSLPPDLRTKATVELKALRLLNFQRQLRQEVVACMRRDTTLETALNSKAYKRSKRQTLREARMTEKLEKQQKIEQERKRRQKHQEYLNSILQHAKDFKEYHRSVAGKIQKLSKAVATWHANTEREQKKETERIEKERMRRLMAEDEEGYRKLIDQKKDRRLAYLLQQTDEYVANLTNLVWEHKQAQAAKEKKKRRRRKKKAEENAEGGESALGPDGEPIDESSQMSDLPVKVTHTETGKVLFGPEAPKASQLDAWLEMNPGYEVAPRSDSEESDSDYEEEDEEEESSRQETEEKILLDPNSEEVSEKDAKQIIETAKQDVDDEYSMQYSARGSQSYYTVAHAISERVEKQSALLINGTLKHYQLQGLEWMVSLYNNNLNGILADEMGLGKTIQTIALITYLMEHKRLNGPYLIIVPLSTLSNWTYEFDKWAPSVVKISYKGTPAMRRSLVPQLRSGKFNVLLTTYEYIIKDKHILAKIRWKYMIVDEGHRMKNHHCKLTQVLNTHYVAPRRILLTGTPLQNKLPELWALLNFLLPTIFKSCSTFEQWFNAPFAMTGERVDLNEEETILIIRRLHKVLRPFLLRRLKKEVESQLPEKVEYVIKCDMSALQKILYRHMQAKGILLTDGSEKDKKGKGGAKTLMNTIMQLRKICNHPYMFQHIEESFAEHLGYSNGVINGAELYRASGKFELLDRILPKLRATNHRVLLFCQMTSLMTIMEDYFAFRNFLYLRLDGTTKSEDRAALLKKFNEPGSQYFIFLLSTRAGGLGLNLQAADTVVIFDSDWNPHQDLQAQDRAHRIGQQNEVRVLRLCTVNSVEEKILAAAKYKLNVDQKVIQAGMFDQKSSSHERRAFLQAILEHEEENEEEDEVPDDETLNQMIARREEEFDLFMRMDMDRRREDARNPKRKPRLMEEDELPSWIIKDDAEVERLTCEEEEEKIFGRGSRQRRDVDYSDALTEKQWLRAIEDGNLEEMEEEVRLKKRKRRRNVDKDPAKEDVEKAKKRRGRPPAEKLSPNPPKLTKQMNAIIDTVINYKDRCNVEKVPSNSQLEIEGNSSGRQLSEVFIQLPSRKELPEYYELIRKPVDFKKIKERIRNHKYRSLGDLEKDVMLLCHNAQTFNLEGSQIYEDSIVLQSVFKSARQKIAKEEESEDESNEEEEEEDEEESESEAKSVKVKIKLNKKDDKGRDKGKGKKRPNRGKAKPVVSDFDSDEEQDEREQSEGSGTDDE
SMILES,DC50 [1],DC50 [2],Dmax [2],BRM HiBit Degradation Maximum (%) [1]
"Cc1ncsc1-c1ccc(CNC(=O)[C@@H]2C[C@@H](O)CN2C(=O)[C@@H](NC(=O)CCCCCCCCCCCCCCCC(=O)NCc2ccc(CCN(C)c3cc(-c4ccccc4O)nnc3N)cc2)C(C)(C)C)cc1 [Compound 133, N1-(4-(2-((3-amino-6-(2-hydroxyphenyl)pyridazin-4-yl)(methyl)amino)ethyl)benzyl)-N17-((S)-1-((2S,4R)-4-hydroxy-2-((4-(4-methylthiazol-5-yl)benzyl)carbamoyl)pyrrolidin-1-yl)-3,3-dimethyl-1-oxobutan-2-yl)heptadecanediamide]",> 100 nM,> 1000 nM,< 50%,B (“B” indicates maximum degradation ≥50%)
"Cc1ncsc1-c1ccc(CNC(=O)[C@@H]2C[C@@H](O)CN2C(=O)[C@@H](NC(=O)CCCCCCCCCCCC(=O)NCc2ccc(CCOc3cc(-c4ccccc4O)nnc3N)cc2)C(C)(C)C)cc1 [Compound 31, N1-(4-(2-((3-amino-6-(2-hydroxyphenyl)pyridazin-4-yl)oxy)ethyl)benzyl)-N13-((S)-1-((2S,4R)-4-hydroxy-2-((4-(4-methylthiazol-5-yl)benzyl)carbamoyl)pyrrolidin-1-yl)-3,3-dimethyl-1-oxobutan-2-yl)tridecanediamide]",> 10 nM,> 1000 nM,< 50%,B (“B” indicates maximum degradation ≥50%)
Nc1nnc(-c2ccccc2O)cc1OCCc1ccc(C(=O)NCCCCCCCCNc2cccc3c2CN(C2CCC(=O)NC2=O)C3=O)cc1 (stereo not drawn) [Compound 56],> 1000 nM,> 1000 nM,< 50%,C (“C” indicates maximum degradation <50%)
"Cc1ncsc1-c1ccc(CNC(=O)[C@@H]2C[C@@H](O)CN2C(=O)[C@@H](NC(=O)CCN2CCC(C(=O)NCc3ccc(CCOc4cc(-c5ccccc5O)nnc4N)cc3)CC2)C(C)(C)C)cc1 [Compound 180, N-(4-(2-((3-amino-6-(2-hydroxyphenyl)pyridazin-4-yl)oxy)ethyl)benzyl)-1-(3-(((S)-1-((2S,4R)-4-hydroxy-2-((4-(4-methylthiazol-5-yl)benzyl)carbamoyl)pyrrolidin-1-yl)-3,3-dimethyl-1-oxobutan-2-yl)amino)-3-oxopropyl)piperidine-4-carboxamide]",> 1000 nM,> 1000 nM,< 50%,B (“B” indicates maximum degradation ≥50%)
"Cc1ncsc1-c1ccc(CNC(=O)[C@@H]2C[C@@H](O)CN2C(=O)[C@@H](NC(=O)COCCOCCOCCOCCOCC(=O)NCc2ccc(CCOc3cc(-c4ccccc4O)nnc3N)cc2)C(C)(C)C)cc1 [Compound 168, N1-(4-(2-((3-amino-6-(2-hydroxyphenyl)pyridazin-4-yl)oxy)ethyl)benzyl)-N17-((S)-1-((2S,4R)-4-hydroxy-2-((4-(4-methylthiazol-5-yl)benzyl)carbamoyl)pyrrolidin-1-yl)-3,3-dimethyl-1-oxobutan-2-yl)-3,6,9,12,15-pentaoxaheptadecanedia]",> 1000 nM,> 1000 nM,< 50%,C (“C” indicates maximum degradation <50%)
"Cc1ncsc1-c1ccc([C@H](C)NC(=O)[C@@H]2C[C@@H](O)CN2C(=O)[C@@H](c2cc(OCCN3CC(C(=O)NCc4ccc(CCOc5cc(-c6ccccc6O)nnc5N)cc4)C3)no2)C(C)C)cc1 [Compound 178, (2S,4R)-1-((R)-2-(3-(2-(3-((4-(2-((3-amino-6-(2-hydroxyphenyl)pyridazin-4-yl)oxy)ethyl)benzyl)carbamoyl)azetidin-1-yl)ethoxy)isoxazol-5-yl)-3-methylbutanoyl)-4-hydroxy-N-((S)-1-(4-(4-methylthiazol-5-yl)phenyl)ethyl)pyrrolidine-2-carboxamide]",> 100 nM,> 100 nM,> 75%,A (“A” indicates maximum degradation ≥75%)
"Nc1nnc(-c2ccccc2O)cc1N1CCN(CCNC(=O)CCCCCCCCNc2cccc3c2C(=O)N(C2CCC(=O)NC2=O)C3=O)CC1 (stereo not drawn) [Compound 97, N-(2-[4-[3-amino-6-(2-hydroxyphenyl)pyridazin-4-yl]piperazin-1-yl]ethyl)-9-[[2-(2,6-dioxopiperidin-3-yl)-1,3-dioxoisoindol-4-yl]amino]nonanamide]",> 1000 nM,> 1000 nM,< 50%,C (“C” indicates maximum degradation <50%)

# Continued, in another order:
DC50 [1],DC50 [2],Dmax [2],SMILES,BRM HiBit Degradation Maximum (%) [1]
> 10 nM,> 1000 nM,< 50%,"Cc1ncsc1-c1ccc([C@H](C)NC(=O)[C@@H]2C[C@@H](O)CN2C(=O)[C@@H](NC(=O)CCCCCCCCCCCCCCC(=O)NCc2ccc(CCOc3cc(-c4ccccc4O)nnc3N)cc2)C(C)(C)C)cc1 [Compound 214, N1-(4-(2-((3-amino-6-(2-hydroxyphenyl)pyridazin-4-yl)oxy)ethyl)benzyl)-N16-((S)-1-((2S,4R)-4-hydroxy-2-(((S)-1-(4-(4-methylthiazol-5-yl)phenyl)ethyl)carbamoyl)pyrrolidin-1-yl)-3,3-dimethyl-1-oxobutan-2-yl)hexadecanediamide]",A (“A” indicates maximum degradation ≥75%)
> 100 nM,> 1000 nM,> 75%,"Cc1ncsc1-c1ccc([C@H](C)NC(=O)[C@@H]2C[C@@H](O)CN2C(=O)[C@@H](c2cc(OCCNCCC(=O)NCc3ccc(CCOc4cc(-c5ccccc5O)nnc4N)cc3)no2)C(C)C)cc1 [Compound 230, (2S,4R)-1-((R)-2-(3-(2-((3-((4-(2-((3-amino-6-(2-hydroxyphenyl)pyridazin-4-yl)oxy)ethyl)benzyl)amino)-3-oxopropyl)amino)ethoxy)isoxazol-5-yl)-3-methylbutanoyl)-4-hydroxy-N-((S)-1-(4-(4-methylthiazol-5-yl)phenyl)ethyl)pyrrolidine-2-carboxamide]",A (“A” indicates maximum degradation ≥75%)
> 100 nM,> 1000 nM,> 50%,"Nc1nnc(-c2ccccc2O)cc1OCCc1ccc(CNCCCOc2cccc3c2C(=O)N(C2CCC(=O)NC2=O)C3=O)cc1 (stereo not drawn) [Compound 122, 4-[3-([[4-(2-[[3-amino-6-(2-hydroxyphenyl)pyridazin-4-yl]oxy]ethyl)phenyl]methyl]amino)propoxy]-2-(2,6-dioxopiperidin-3-yl)isoindole-1,3-dione]",B (“B” indicates maximum degradation ≥50%)
> 100 nM,> 1000 nM,< 50%,"Cc1ncsc1-c1ccc(CNC(=O)[C@@H]2C[C@@H](O)CN2C(=O)[C@@H](NC(=O)CCCCCCCCC(=O)NCc2ccc(CCOc3cc(-c4ccccc4O)nnc3N)cc2)C(C)(C)C)cc1 [Compound 138, N1-(4-(2-((3-amino-6-(2-hydroxyphenyl)pyridazin-4-yl)oxy)ethyl)benzyl)-N10-((S)-1-((2S,4R)-4-hydroxy-2-((4-(4-methylthiazol-5-yl)benzyl)carbamoyl)pyrrolidin-1-yl)-3,3-dimethyl-1-oxobutan-2-yl)decanediamide]",A (“A” indicates maximum degradation ≥75%)
> 1000 nM,> 1000 nM,< 50%,"Cc1ncsc1-c1ccc(CNC(=O)[C@H]2C[C@H](O)CN2C(=O)[C@H](NC(=O)COCCOCCOCCNC(=O)c2ccc(CCOc3cc(-c4ccccc4O)nnc3N)cc2)C(C)(C)C)cc1 (stereo in doubt) [Compound 60, (2R,4S)-1-[(2R)-2-(2-[2-[2-(2-[[4-(2-[[3-amino-6-(2-hydroxyphenyl)pyridazin-4-yl]oxy]ethyl)phenyl]formamido]ethoxy)ethoxy]ethoxy]acetamido)-3,3-dimethylbutanoyl]-4-hydroxy-N-[[4-(4-methyl-1,3-thiazol-5-yl)phenyl]methyl]pyrrolidine-2-carboxamide]",B (“B” indicates maximum degradation ≥50%)
